Structures are written as SMILES.

The source of these data is patent US10413579B2, “Pharmaceutical composition for preventing or treating asthma comprising Pistacia weinmannifolia J. Poiss. ex Franch extract or fraction thereof” (Korea Research Institute of Bioscience and Biotechnology, priority 2013, dated 2019).

Common to all, as to format: in vivo, mouse
The test system of one assay is serum IgE. Nature of the assay: Serum IgE in ovalbumin-sensitized asthma mice (immunoenzymatic assay). To be noted: 30 mg/kg PO. The method, then: (§1) In the present experiment, 6-week-old Balb/c female mice having a body weight of about 20 g in average were used as experimental animals. After 1 week of acclimation, animals showing no abnormal findings on physical examination were used as subjects. 2 mg of aluminium hydroxide (A8222, Sigma, St. Louis, Mo.) and 20 μg of ovalbumin (A5503, Sigma, St. Louis, Mo.) were suspended in 200 μl of phosphate buffer (pH 7.4) and then injected into the peritoneal cavity of mouse for sensitization. On days 21 to 23 after the first intraperitoneal administration of ovalbumin, inhalation challenge was performed for 30 min with 1% ovalbumin using an ultrasonic atomizer. 24 hours after the last antigen administration, airway hyperresponsiveness was measured. 48 hours later, a lethal dose of pentobarbital (Entobal, Hanlim Pharmaceutical Co., Ltd.) was administered, body weight measurement and bronchotomy were performed, and bronchoalveolar lavage was performed with a total 1.2 mL of physiological saline, and then, samples were collected. […] Seven white mice were used for each group.
(§2) To measure serum IgE and ovalbumin-specific IgE, an immunoenzymatic assay was used. IgE level was measured using a commercially available kit (Biolegend Ins., California, USA). […] For color development, 3,3′,5,5′-tetramethylbezidine substrate was allowed to react, and the spectroscopic absorbance was measured at 450 nm.

Another assay relates to ovalbumin-specific IgE. Nature of the assay: Ovalbumin-specific IgE in serum of ovalbumin-sensitized asthma mice (ELISA). To be noted: 30 mg/kg PO, mean±S.E. The method, then:
as §1, §2

Assay [1] deals with ovalbumin-sensitized asthma animal models. Put plainly: Inflammatory cells in bronchoalveolar lavage fluid of ovalbumin-sensitized asthma mice. The conditions noted are these: 30 mg/kg PO. The method, then:
as §1

A further assay concerns interleukin-4. Put plainly: Interleukin-4 in bronchoalveolar lavage fluid (ELISA). To be noted: 30 mg/kg PO, mean±S.E. The method, then: as §1, with “group. […]” for “group.”
(§3) Briefly, 100 μl of bronchoalveolar lavage fluid was added to a well plate and allowed to react for 1 hour. […] Absorbance was measured at 450 nm.

In another assay the test system is interleukin-5. Put plainly: Interleukin-5 in bronchoalveolar lavage fluid (ELISA). The conditions noted are these: 30 mg/kg PO, mean±S.E. The method, then:
as §1, with “group. […]” for “group.”
as §3

Another assay concerns interleukin-13. Nature of the assay: Interleukin-13 in bronchoalveolar lavage fluid (ELISA). To be noted: 30 mg/kg PO, mean±S.E. The method, then: as §1, with “group. […]” for “group.”
as §3

As for `CC(C)(O)c1ccccc1CC[C@@H](SCC1(CC(=O)O)CC1)c1cccc(/C=C/c2ccc3ccc(Cl)cc3n2)c1` [Mon, montelukast], in the assay with serum IgE, the “serum IgE antibody level” value was determined as 1.8 ± 0.28 µg/mL. Besides, the IgE with serum IgE (mean±S.E., Table 1) was determined as 1.8 ± 0.28 ng/mL. The “OVA-specific IgE” value in the assay with ovalbumin-specific IgE was 108 ± 83.0 ng/mL. Further, the “number of eosinophils in bronchoalveolar lavage fluid” value in assay [1] (OVA group (74±16.0)×10^5) is on record as 36±20.4 ×10^5. Moreover, in assay [1] (OVA group (180±22.2)×10^5), the “number of total inflammatory cells in bronchoalveolar lavage fluid” value is given as 98±19.3 ×10^5. This molecule also displayed an IL-4 in the assay on interleukin-4 of 34.6 ± 6.52 pg/mL. For the same molecule, in the assay on interleukin-5, the IL-5 was 32.4 ± 4.46 pg/mL. In addition, in the assay on interleukin-13, the IL-13 is 65.7 ± 18.86 pg/mL.
